Results on 17 compounds are retold here after PubChem BioAssay AID214 (DTP/NCI, 2004).

Where “and” joins values, the source holds several entries; their conditions need not be identical. Equal entries are not always repeated. Inconclusive results are not listed.

In this assay the test system is B6C3F1 mice, colon carcinoma 38 s.c., T/C. Description: NCI In Vivo Anticancer Drug Screen. Data for tumor model Colon Carcinoma 38 (subcutaneous) in B6C3F1 mice. To be noted: endpoint: median tumor weight (est.), higher = larger tumour. On the procedure: The antitumor activity of compounds was measured in mice bearing transplantable tumors. Survival or tumor size were measured and the results are expressed as the measurement made in the treated group (T) divided by the measurement made in the vehicle treated control group (C). The tumor model used in this assay is Colon Carcinoma 38 (subcutaneous) in B6C3F1 mice

Setting [1] is: dose: 25.0 mg/kg/injection, schedule: Q07DX002 (ip), vehicle: Klucel (hydroxypropylcellulose) (HPC).
[2] abbreviates: dose: 50.0 mg/kg/injection, schedule: Q07DX002 (ip), vehicle: Klucel (hydroxypropylcellulose) (HPC).
Where [3] appears, read: dose: 50.0 mg/kg/injection, schedule: Q07DX002 (ip), vehicle: saline with Tween-80.
[4] abbreviates: dose: 100.0 mg/kg/injection, schedule: Q07DX002 (ip), vehicle: saline with Tween-80.
Setting [5] is: dose: 200.0 mg/kg/injection, schedule: Q07DX002 (ip), vehicle: saline with Tween-80.
Where [6] appears, read: dose: 6.25 mg/kg/injection, schedule: Q07DX002 (ip), vehicle: saline.
Where [7] appears, read: dose: 400.0 mg/kg/injection, schedule: Q07DX002 (ip), vehicle: saline with Tween-80.
Where [8] appears, read: dose: 12.5 mg/kg/injection, schedule: Q07DX002 (ip), vehicle: saline.
[9] abbreviates: dose: 25.0 mg/kg/injection, schedule: Q07DX002 (ip), vehicle: saline.
Where [10] appears, read: dose: 50.0 mg/kg/injection, schedule: Q07DX002 (ip), vehicle: saline.

Turning to `Cc1c(-c2ccc(-c3ccccc3F)cc2)nc2ccc(F)cc2c1C(=O)O`, the T/C runs as follows: (dose: 3.6 mg/kg/injection, schedule: Q01DX008 (ip), vehicle: water) 45 % of control; (dose: 6.0 mg/kg/injection, schedule: Q01DX008 (ip), vehicle: water) 53 % of control; (dose: 10.0 mg/kg/injection, schedule: Q01DX008 (ip), vehicle: water) 43 % of control; (dose: 16.6 mg/kg/injection, schedule: Q01DX008 (ip), vehicle: water) 26 % of control; (dose: 27.7 mg/kg/injection, schedule: Q01DX008 (ip), vehicle: water) 23 % of control.
`CCC/C=C/C=C/C(=O)OC1/C(=C/C(=O)OC)CC2CC(C(C)O)OC(=O)CC(O)CC3CC(OC(C)=O)C(C)(C)C(O)(CC4C/C(=C/C(=O)OC)CC(/C=C/C(C)(C)C1(O)O2)O4)O3` (centres undefined): the T/C by setting is: (dose: 37.5 micrograms/kg/injection, schedule: Q07DX002 (ip), vehicle: saline + alcohol) 191 % of control; (dose: 300.0 micrograms/kg/injection, schedule: Q07DX002 (ip), vehicle: saline + alcohol) 74 % of control.
For `O=C(CCBr)N1CCN(C(=O)CCBr)CC1`, the T/C is, setting by setting: (dose: 40.0 mg/kg/injection, schedule: Q07DX002 (ip), vehicle: saline with Tween-80) 81 % of control; (dose: 80.0 mg/kg/injection, schedule: Q07DX002 (ip), vehicle: saline with Tween-80) 20 % of control and 33 % of control; (dose: 320.0 mg/kg/injection, schedule: Q07DX002 (ip), vehicle: saline with Tween-80) 6 % of control.
As for `NC1(C(=O)O)CCCC1`, the T/C (dose: 50.0 mg/kg/injection, schedule: Q07DX003 (ip), vehicle: saline) is 69 % of control; the T/C (dose: 100.0 mg/kg/injection, schedule: Q07DX003 (ip), vehicle: saline) was 81 % of control; the T/C (dose: 200.0 mg/kg/injection, schedule: Q07DX003 (ip), vehicle: saline) is 39 % of control.
As to `[Na+]`, the T/C (dose: 50.0 mg/kg/injection, schedule: Q07DX002 (ip), vehicle: water) was 100 % of control; the T/C (dose: 100.0 mg/kg/injection, schedule: Q07DX002 (ip), vehicle: water) was 57 % of control; the T/C (dose: 200.0 mg/kg/injection, schedule: Q07DX002 (ip), vehicle: water) is 68 % of control; the T/C (dose: 400.0 mg/kg/injection, schedule: Q07DX002 (ip), vehicle: water) is 58 % of control; the T/C (dose: 800.0 mg/kg/injection, schedule: Q07DX002 (ip), vehicle: water) was 63 % of control.
Consider `CCNC(=O)[B-][N+](C)(C)C`, for which the T/C reads like this: under setting [1], 101 % of control; under setting [2], 55 % of control; (dose: 100.0 mg/kg/injection, schedule: Q07DX002 (ip), vehicle: Klucel (hydroxypropylcellulose) (HPC)) 87 % of control; (dose: 200.0 mg/kg/injection, schedule: Q07DX002 (ip), vehicle: Klucel (hydroxypropylcellulose) (HPC)) 107 % of control; (dose: 400.0 mg/kg/injection, schedule: Q07DX002 (ip), vehicle: Klucel (hydroxypropylcellulose) (HPC)) 81 % of control.
On to `COc1ccc(S(=O)(=O)N=N/C=C2\C=CC=CN2O)cc1OC`, for which the T/C under setting [3] is 175 % of control, the T/C under setting [4] is 91 % of control and the T/C under setting [5] is 166 % of control.
Turning to `Cc1cc(NCCCN(C)C)c2ccc3c(ccc4c(NCCCN(C)C)cc(C)nc43)c2n1`, the T/C reads like this: (dose: 0.78 mg/kg/injection, schedule: Q07DX002 (ip), vehicle: saline) 97 % of control; (dose: 1.56 mg/kg/injection, schedule: Q07DX002 (ip), vehicle: saline) 91 % of control; (dose: 3.12 mg/kg/injection, schedule: Q07DX002 (ip), vehicle: saline) 115 % of control; under setting [6], 100 % of control.
For the compound `CCOC(=O)c1c[nH]c2oc(/C=N/N3CC(CN4CCOCC4)OC3=O)cc2c1=O` (centres undefined), the T/C by setting is: (dose: 150.0 mg/kg/injection, schedule: Q07DX002 (ip), vehicle: other) 83 % of control; (dose: 300.0 mg/kg/injection, schedule: Q07DX002 (ip), vehicle: other) 56 % of control; (dose: 600.0 mg/kg/injection, schedule: Q07DX002 (ip), vehicle: other) 29 % of control.
Regarding `Nc1nc(N)c2cc(S(=O)(=O)c3ccccc3)ccc2n1`, the T/C was 62 % of control under setting [3], 45 % of control under setting [4], 44 % of control under setting [5] and 24 % of control under setting [7].
Consider `C=C1COC(O)(C2OCOC(C3CC(=O)NC(=O)C3)C2O)C1C` (centres undefined), for which the T/C (dose: 31.25 micrograms/kg/injection, schedule: Q07DX002 (ip), vehicle: water) was 119 % of control.
For the compound `O=P(O)(NCCCl)NCCCl`, the T/C reads like this: under setting [8], 52 % of control; under setting [9], 100 % of control; under setting [10], 60 % of control.
For the compound `NC(Cn1ccc(=O)c(O)c1)C(=O)O` (centres undefined), the T/C is, setting by setting: (dose: 100.0 mg/kg/injection, schedule: Q07DX002 (ip), vehicle: saline) 97 % of control; (dose: 400.0 mg/kg/injection, schedule: Q07DX002 (ip), vehicle: saline) 54 % of control; (dose: 800.0 mg/kg/injection, schedule: Q07DX002 (ip), vehicle: saline) 156 % of control.
Regarding `N=c1c(C(=O)OCc2ccccc2)ncc(CCl)n1O`, the T/C under setting [3] is 76 % of control; the T/C under setting [4] was 107 % of control; the T/C under setting [7] was 113 % of control; the T/C (dose: 800.0 mg/kg/injection, schedule: Q07DX002 (ip), vehicle: saline with Tween-80) was 72 % of control.
For the compound `COC12C(COC(=O)NCCO)C3=C(C(=O)C(C)=C(N)C3=O)N1CC1NC12` (centres undefined), the T/C (dose: 12.5 mg/kg/injection, schedule: Q07DX002 (ip), vehicle: Klucel (hydroxypropylcellulose) (HPC)) is 65 % of control; the T/C under setting [1] was 50 % of control; the T/C under setting [2] is 12 % of control.
Turning to `CCOC(=O)C(N)C[S][Sn]([CH3])([CH3])[Cl]` (centres undefined), the T/C was 123 % of control under setting [6], 61 % of control under setting [8], 90 % of control under setting [9] and 110 % of control under setting [10].
`CCCCCC1c2cc(O)ccc2OC1N1CCOCC1` (centres undefined): the T/C is, setting by setting: (dose: 25.0 mg/kg/injection, schedule: Q07DX002 (ip), vehicle: saline with Tween-80) 103 % of control; under setting [3], 74 % of control; under setting [4], 92 % of control; under setting [7], 81 % of control.
